The text below walks through data of ChEMBL document CHEMBL1156512, “Accumulation of glucosylceramide in murine testis, caused by inhibition of beta-glucosidase 2: implications for spermatogenesis” (J Biol Chem, 2007).

For data set [1], the target named is T1, Ceramide glucosyltransferase (Mus musculus, UniProt O88693).
T1 sequence (O88693 whole entry): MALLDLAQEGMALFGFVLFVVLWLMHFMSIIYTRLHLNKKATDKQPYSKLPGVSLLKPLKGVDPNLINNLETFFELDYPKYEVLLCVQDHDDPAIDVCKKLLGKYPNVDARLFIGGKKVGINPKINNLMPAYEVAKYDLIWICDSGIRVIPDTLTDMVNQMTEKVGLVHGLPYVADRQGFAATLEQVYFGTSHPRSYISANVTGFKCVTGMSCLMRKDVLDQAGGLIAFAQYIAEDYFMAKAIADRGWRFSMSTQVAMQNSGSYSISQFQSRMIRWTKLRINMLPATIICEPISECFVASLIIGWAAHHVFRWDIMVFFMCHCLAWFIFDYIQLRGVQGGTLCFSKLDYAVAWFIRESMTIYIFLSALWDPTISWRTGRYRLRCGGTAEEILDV
Put plainly: Inhibition mouse glucosylceramide synthase.

Data set [2] deals with T2, Beta-glucosidase (Homo sapiens, UniProt Q9HCG7).
T2 sequence (Q9HCG7 whole entry): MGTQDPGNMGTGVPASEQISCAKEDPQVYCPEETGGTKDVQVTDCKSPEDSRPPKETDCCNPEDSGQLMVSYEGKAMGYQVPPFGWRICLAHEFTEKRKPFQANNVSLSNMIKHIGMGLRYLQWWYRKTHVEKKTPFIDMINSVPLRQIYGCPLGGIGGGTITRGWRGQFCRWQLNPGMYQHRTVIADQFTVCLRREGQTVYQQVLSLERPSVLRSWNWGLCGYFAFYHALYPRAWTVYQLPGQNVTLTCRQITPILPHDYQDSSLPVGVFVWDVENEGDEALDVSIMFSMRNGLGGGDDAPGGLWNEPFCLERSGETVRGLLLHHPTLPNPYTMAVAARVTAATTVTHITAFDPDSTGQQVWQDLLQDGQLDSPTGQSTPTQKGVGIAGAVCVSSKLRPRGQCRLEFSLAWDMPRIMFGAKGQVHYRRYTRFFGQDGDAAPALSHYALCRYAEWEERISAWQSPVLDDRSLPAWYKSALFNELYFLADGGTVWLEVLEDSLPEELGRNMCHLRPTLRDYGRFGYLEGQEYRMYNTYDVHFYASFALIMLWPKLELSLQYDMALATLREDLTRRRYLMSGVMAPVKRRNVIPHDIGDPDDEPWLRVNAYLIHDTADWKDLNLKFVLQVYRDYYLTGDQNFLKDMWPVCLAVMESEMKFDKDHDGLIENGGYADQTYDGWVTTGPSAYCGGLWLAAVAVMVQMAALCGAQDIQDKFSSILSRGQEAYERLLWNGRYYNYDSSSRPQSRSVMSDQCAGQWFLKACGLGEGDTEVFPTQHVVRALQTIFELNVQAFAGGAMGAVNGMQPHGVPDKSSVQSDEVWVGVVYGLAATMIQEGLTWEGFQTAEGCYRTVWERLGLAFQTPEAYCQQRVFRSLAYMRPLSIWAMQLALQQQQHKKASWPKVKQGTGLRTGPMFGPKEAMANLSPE
As to the kind of experiment: Inhibition of bile acid beta-glucosidase activity of human liver GBA2.

The test system of data set [3] is Mus musculus. Put plainly: Increase in glucosylceramide level in C57BL/6 mouse testes at 300 mg/kg/day administered with chow. Type of data set: functional, organism-based. To be noted: Testis.
Data set [4] relates to Mus musculus. As to the kind of experiment: Increase in glucosylceramide level in C57BL/6 mouse testes administered with chow at 15 mg/kg/day after 3 to 12 months. Type of data set: functional, Testis.
Data set [5] has as its system Mus musculus. Put plainly: Effect on testicular ceramides level in C57BL/6 mouse at 150 mg/kg/day administered with chow. Type of data set: functional, organism-based.
Data set [6] relates to Mus musculus. Put plainly: Increase in glucosylceramide level in GBA2 deficient C57BL/6-129S1 mouse germ cells at 150 mg/kg/day administered with chow. Type of data set: functional, organism-based.
In data set [7] the test system is Mus musculus. As to the kind of experiment: Effect on spermatogenesis in C57BR mouse assessed as morphological changes in spermatozoa at 150 mg/kg/day administered with chow. Type of data set: functional, organism-based.
For data set [8], the species on record is Mus musculus. As to the kind of experiment: Increase in neutral glycolipids level in C57BL/6 mouse testes. Type of data set: functional, organism-based. To be noted: Testis.
The test system of data set [9] is Mus musculus. As to the kind of experiment: Increase in glucosylceramide level in C57BL/6 mouse brain at 1200 mg/kg/day administered with chow. Type of data set: functional, organism-based.
The test system of data set [10] is Mus musculus. As to the kind of experiment: Effect on spermatogenesis in C57BL/6 mouse assessed as morphological changes in spermatozoa at 150 mg/kg/day administered with chow. Type of data set: functional, organism-based.
Data set [11] relates to Mus musculus. As to the kind of experiment: Reduction of complex glycosylated sphingolipids level in C57BL/6 mouse testes at 2400 mg/kg/day administered with chow. Also on record: scale not given: the % may be the effect or the level left. Type of data set: functional.
The subject of data set [12] is Serum. As to the kind of experiment: Drug level in C57BL/6 mouse serum at 15 mg/kg/day assessed as enzyme activity. Type of data set: ADME, organism-based. The following applies: in vivo, read-out: Drug uptake.
Data set [13] concerns Mus musculus. As to the kind of experiment: Increase in glucosylceramide level in C57BL/6 mouse spleen administered with chow. Type of data set: functional, organism-based.
In data set [14] the test system is Mus musculus. Put plainly: Increase in glucosylceramide level in GBA2 deficient C57BL/6-129S1 mouse testes at 150 mg/kg/day administered with chow. Type of data set: functional, organism-based. The following applies: Testis.
The test system of data set [15] is Mus musculus. Put plainly: Effect on spermatogenesis in AKR mouse assessed as morphological changes in spermatozoa at 150 mg/kg/day administered with chow. Type of data set: functional, organism-based.
Data set [16] relates to Mus musculus. Put plainly: Decrease in testicular very long chain polyunsaturated fatty acid sphingomyelin level in beta-glucosidase 2 deficient C57BL/6-129S1 mouse at 150 mg/kg/day administered with chow. Type of data set: functional, organism-based.
In data set [17] the test system is Mus musculus. Put plainly: Increase in glucosylceramide level in C57BL/6 mouse testes administered with chow after 5 days. Type of data set: functional, organism-based. To be noted: Testis.
Data set [18] concerns Mus musculus. As to the kind of experiment: Increase in complex glycosylated sphingolipids in C57BL/6 mouse testes at 5 mg/kg/day administered with chow. Type of data set: functional, Testis.
The test system of data set [19] is Mus musculus. Put plainly: Increase in glucosylceramide level in C57BL/6 mouse liver administered with chow. Type of data set: functional, organism-based.
Data set [20] deals with Mus musculus. As to the kind of experiment: Increase in complex glycosylated sphingolipids level in C57BL/6 mouse testes at 15 mg/kg/day administered with chow after 6 to 9 months. Type of data set: functional, organism-based. The following applies: Testis.
Data set [21] concerns Mus musculus. As to the kind of experiment: Increase in long and saturated glucosylceramide level in C57BL/6 mouse testes at 150 mg/kg/day administered with chow. Type of data set: functional, organism-based. To be noted: Testis.
The subject of data set [22] is Mus musculus. As to the kind of experiment: Effect on spermatogenesis in NZW mouse assessed as morphological changes in spermatozoa at 150 mg/kg/day administered with chow. Type of data set: functional, organism-based.
Data set [23] relates to Mus musculus. As to the kind of experiment: Increase in glucosylceramide level in GBA2 deficient C57BL/6-129S1 mouse somatic cells at 150 mg/kg/day administered with chow. Type of data set: functional, organism-based.
The subject of data set [24] is Mus musculus. As to the kind of experiment: Effect on spermatogenesis in C57BL/10 mouse assessed as morphological changes in spermatozoa at 15 mg/kg/day administered with chow. Type of data set: functional, organism-based.
In data set [25] the test system is Mus musculus. As to the kind of experiment: Effect on spermatogenesis in DBA2 mouse assessed as morphological changes in spermatozoa at 150 mg/kg/day administered with chow. Type of data set: functional, organism-based.
In data set [26] the test system is Mus musculus. Put plainly: Effect on spermatogenesis in FVB/N mouse assessed as morphological changes in spermatozoa at 15 mg/kg/day administered with chow. Type of data set: functional, organism-based.
The species entered for data set [27] is Mus musculus. Put plainly: Effect on glucosylceramide level in C57BL/6 mouse testes. Type of data set: functional, organism-based. The following applies: Testis.
The subject of data set [28] is Mus musculus. Put plainly: Effect on glucosylceramide level in C57BL/6 mouse testes at 15 mg/kg/day administered with chow. Type of data set: functional, organism-based. To be noted: Testis.
The test system of data set [29] is Mus musculus. Put plainly: Increase in very long and polyunsaturated glucosylceramide level in C57BL/6 mouse testes at 150 mg/kg/day administered with chow. Type of data set: functional, organism-based. The following applies: Testis.
For data set [30], the system named is Mus musculus. Put plainly: Effect on testicular sphingomyelin level in C57BL/6 mouse at 150 mg/kg/day administered with chow. Type of data set: functional, organism-based.
Data set [31] deals with Mus musculus. As to the kind of experiment: Effect on spermatogenesis in C3H mouse assessed as morphological changes in spermatozoa at 150 mg/kg/day administered with chow. Type of data set: functional, organism-based.
In data set [32] the test system is Mus musculus. As to the kind of experiment: Effect on spermatogenesis in MA/My mouse assessed as morphological changes in spermatozoa at 150 mg/kg/day administered with chow. Type of data set: functional, organism-based.
The test system of data set [33] is Mus musculus. As to the kind of experiment: Effect on spermatogenesis in C57BL/6-129S1 mouse assessed as morphological changes in spermatozoa at 150 mg/kg/day administered with chow. Type of data set: functional, organism-based.
Data set [34] concerns Mus musculus. As to the kind of experiment: Effect on complex glycosylated sphingolipids level in C57BL/6 mouse testes at 15 to 50 mg/kg/day, po. Type of data set: functional, organism-based. The following applies: Testis.
Data set [35] relates to Mus musculus. As to the kind of experiment: Effect on spermatogenesis in BALB/c mouse assessed as morphological changes in spermatozoa at 150 mg/kg/day administered with chow. Type of data set: functional, organism-based.

What is called IC50 is the concentration at which inhibition is half-maximal.

The source made the active and inactive calls. The rule behind the calls is not given here.

In the case of `CCCCN1[C@H](CO)[C@H](O)[C@H](O)[C@@H](O)[C@@H]1O`, the IC50 in [1] is 5300 nM.

Take `CCCCCCCCCOC(=O)N1C[C@H](O)[C@@H](O)[C@H](O)[C@H]1CO`: the IC50 in data set [2] amounted to 20 nM.

`CCCCCCCCCCCCN1C[C@H](O)[C@@H](O)[C@H](O)[C@H]1CO` gave an IC50 in data set [2] of 2 nM.

Turning to `CCCCN1C[C@H](O)[C@@H](O)[C@H](O)[C@H]1CO`, the outcome in data set [3], in [6], in [7], in data set [8], in data set [9] and in data set [10] was Active. Further, the outcome in [13], in [14], in data set [16], in data set [17], in [20] and in data set [21] was Active. In addition, the result in [23], in data set [24], in data set [28] and in [29] was Active. In addition, the Activity in [4] is 5; in [11] it was 22%; in data set [18] it was 15%; in data set [27], “Dose-dependent effect”. The outcome in data set [5], in data set [15], in [19], in data set [22], in [25] and in [26] was inactive. Also, the outcome in data set [30], in data set [31], in data set [32], in data set [33], in data set [34] and in [35] was inactive. In data set [12], the concentration was 490 nM.
